Source: ChEMBL document CHEMBL5649167, “The SUV4-20 inhibitor A-196 verifies a role for epigenetics in genomic integrity” (Nat Chem Biol, 2017)
Active and inactive are the calls of the source. No cut-off for these calls is given here.

Experiments:
[1] = biological target: C-C chemokine receptor type 1 (Homo sapiens) (UniProt P32246); test: Inhibition of human C-C chemokine receptor type 1 at 10 uM relative to control
[2] = biological target: Histamine H4 receptor (Homo sapiens) (UniProt Q9H3N8); test: Inhibition of human Histamine H4 receptor expressed in HEK293T cells at 10 uM relative to control; type: cell-based
Chain of Histamine H4 receptor (Homo sapiens) (Q9H3N8 whole entry): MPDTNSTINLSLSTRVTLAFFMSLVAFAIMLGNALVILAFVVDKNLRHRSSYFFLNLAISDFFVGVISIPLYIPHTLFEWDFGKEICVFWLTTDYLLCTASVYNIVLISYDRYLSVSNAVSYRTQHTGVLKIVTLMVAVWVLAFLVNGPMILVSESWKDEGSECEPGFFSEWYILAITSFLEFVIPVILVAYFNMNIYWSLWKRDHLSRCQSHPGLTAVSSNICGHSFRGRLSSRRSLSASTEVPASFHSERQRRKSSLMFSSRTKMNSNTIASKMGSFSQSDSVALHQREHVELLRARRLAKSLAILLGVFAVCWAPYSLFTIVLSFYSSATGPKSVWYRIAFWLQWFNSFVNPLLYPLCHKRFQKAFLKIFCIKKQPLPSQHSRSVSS

Rattus norvegicus [3] = species: Rattus norvegicus; test: Inhibition of Rat GABAA at 10 uM in the presence of PBR relative to control
[4] = biological target: Sodium-dependent serotonin transporter (Homo sapiens) (UniProt P31645); test: Inhibition of human 5-HT transporter at 10 uM relative to control
Chain of Sodium-dependent serotonin transporter (Homo sapiens) (P31645 whole entry, looked up): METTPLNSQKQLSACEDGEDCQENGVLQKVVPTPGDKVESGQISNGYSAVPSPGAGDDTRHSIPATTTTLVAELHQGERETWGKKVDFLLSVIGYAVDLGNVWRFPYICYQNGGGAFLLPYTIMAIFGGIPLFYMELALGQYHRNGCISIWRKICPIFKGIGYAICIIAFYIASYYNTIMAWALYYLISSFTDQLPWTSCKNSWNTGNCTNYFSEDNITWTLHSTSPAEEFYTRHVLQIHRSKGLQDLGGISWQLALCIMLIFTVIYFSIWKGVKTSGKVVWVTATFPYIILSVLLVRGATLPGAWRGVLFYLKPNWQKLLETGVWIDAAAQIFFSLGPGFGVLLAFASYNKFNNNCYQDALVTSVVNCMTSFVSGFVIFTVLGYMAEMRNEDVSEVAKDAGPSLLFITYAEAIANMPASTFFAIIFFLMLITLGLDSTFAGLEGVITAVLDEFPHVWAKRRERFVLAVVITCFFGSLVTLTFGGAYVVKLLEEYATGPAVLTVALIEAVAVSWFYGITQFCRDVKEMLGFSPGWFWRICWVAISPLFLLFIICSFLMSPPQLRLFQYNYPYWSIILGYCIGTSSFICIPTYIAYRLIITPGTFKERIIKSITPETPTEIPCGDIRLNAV

[5] = biological target: T1, Muscarinic acetylcholine receptor M2 (Homo sapiens) (UniProt P08172); test: Inhibition of human Muscarinic acetylcholine receptor M2 at 10 uM relative to control
T1 sequence (whole entry): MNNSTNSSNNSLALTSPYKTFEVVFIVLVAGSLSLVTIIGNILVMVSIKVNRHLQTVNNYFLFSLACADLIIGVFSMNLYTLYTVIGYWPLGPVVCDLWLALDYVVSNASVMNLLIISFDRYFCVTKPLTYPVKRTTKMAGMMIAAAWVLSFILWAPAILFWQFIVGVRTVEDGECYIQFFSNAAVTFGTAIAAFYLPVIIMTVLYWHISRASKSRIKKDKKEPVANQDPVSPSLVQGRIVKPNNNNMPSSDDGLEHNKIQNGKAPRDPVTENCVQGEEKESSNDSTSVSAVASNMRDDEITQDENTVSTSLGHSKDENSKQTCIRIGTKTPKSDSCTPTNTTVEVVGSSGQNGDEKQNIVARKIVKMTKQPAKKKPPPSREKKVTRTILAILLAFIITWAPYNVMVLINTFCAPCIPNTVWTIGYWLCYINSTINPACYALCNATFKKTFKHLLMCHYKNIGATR

[6] = biological target: Melanocortin receptor 4 (Homo sapiens) (UniProt P32245); test: Inhibition of human Melanocortin receptor 4 at 10 uM relative to control
[7] = biological target: Neuropeptide Y receptor type 2 (Homo sapiens) (UniProt P49146); test: Inhibition of human NPY-Y2 receptor at 10 uM relative to control
[8] = biological target: Kappa-type opioid receptor (Homo sapiens) (UniProt P41145); test: Inhibition of human Kappa-type opioid receptor at 10 uM relative to control
Chain of Kappa-type opioid receptor (Homo sapiens) (P41145 whole entry): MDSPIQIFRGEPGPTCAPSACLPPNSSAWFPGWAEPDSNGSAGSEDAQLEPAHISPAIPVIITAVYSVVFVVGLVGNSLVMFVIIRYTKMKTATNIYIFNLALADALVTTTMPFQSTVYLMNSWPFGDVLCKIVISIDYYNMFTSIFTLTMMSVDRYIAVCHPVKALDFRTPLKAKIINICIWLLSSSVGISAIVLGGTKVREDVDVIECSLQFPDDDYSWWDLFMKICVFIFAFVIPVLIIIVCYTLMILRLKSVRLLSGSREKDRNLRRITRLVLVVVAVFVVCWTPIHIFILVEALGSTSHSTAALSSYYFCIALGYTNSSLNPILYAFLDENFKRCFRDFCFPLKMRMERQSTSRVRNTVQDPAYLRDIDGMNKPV

Homo sapiens [9] = species: Homo sapiens; test: Inhibition of human 5-HT3 at 10 uM relative to control
Homo sapiens [10] = species: Homo sapiens; test: Inhibition of human SKCa channel at 10 uM relative to control
Rattus norvegicus [11] = species: Rattus norvegicus; test: Inhibition of Rat GABAA at 10 uM in the presence of 3H and BZP relative to control
[12] = biological target: Muscarinic acetylcholine receptor M3 (Homo sapiens) (UniProt P20309); test: Inhibition of human Muscarinic acetylcholine receptor M3 expressed in stable Cricetulus griseus CHO cells at 10 uM relative to control; type: cell-based
[13] = biological target: Beta-1 adrenergic receptor (Homo sapiens) (UniProt P08588); test: Inhibition of human Beta-1 adrenergic receptor expressed in Cricetulus griseus Flp-In-CHO cells at 10 uM relative to control; type: cell-based
Chain of Beta-1 adrenergic receptor (Homo sapiens) (P08588 whole entry, looked up): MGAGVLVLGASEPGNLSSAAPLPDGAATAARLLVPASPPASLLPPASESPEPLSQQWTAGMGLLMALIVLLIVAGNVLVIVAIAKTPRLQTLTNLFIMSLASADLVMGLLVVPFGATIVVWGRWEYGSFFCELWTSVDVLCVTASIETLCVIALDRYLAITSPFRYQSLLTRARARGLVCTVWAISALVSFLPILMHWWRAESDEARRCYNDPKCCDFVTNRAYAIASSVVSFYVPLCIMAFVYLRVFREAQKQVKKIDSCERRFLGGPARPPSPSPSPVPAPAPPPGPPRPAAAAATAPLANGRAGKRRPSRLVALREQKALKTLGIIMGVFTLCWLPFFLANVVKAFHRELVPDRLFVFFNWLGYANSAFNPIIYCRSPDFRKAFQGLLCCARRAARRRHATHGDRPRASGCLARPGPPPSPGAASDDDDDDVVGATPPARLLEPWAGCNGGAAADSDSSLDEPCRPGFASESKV

[14] = biological target: Sigma intracellular receptor 2 (Homo sapiens) (UniProt Q5BJF2); test: Inhibition of human Sigma intracellular receptor 2 at 10 uM relative to control; type: cell-based
Chain of Sigma intracellular receptor 2 (Homo sapiens) (Q5BJF2 whole entry): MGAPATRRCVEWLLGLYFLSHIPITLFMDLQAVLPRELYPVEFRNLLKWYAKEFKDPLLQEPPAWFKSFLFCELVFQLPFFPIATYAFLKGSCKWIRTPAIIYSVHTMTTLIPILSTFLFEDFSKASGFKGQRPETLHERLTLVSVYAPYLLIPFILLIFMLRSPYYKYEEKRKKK

[15] = biological target: Adenosine receptor A1 (Homo sapiens) (UniProt P30542); test: Inhibition of human Adenosine receptor A1 at 10 uM relative to control
[16] = biological target: Nociceptin receptor (Homo sapiens) (UniProt P41146); test: Inhibition of human Nociceptin receptor at 10 uM relative to control
Chain of Nociceptin receptor (Homo sapiens) (P41146 whole entry): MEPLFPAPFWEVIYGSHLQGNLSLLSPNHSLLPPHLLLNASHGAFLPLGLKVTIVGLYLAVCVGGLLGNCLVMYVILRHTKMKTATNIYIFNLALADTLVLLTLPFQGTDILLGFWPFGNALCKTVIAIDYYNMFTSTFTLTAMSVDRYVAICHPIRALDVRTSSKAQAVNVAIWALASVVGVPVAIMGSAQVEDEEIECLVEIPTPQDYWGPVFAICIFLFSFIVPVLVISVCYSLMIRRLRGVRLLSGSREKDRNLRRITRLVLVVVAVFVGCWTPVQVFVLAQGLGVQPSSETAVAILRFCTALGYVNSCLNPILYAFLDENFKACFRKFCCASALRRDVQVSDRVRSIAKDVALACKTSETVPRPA

Homo sapiens [17] = species: Homo sapiens; test: Inhibition of human GABA-gated Cl- channel at 10 uM relative to control
[18] = biological target: B2 bradykinin receptor (Homo sapiens) (UniProt P30411); test: Inhibition of human BK-2 receptor at 10 uM relative to control
[19] = biological target: 5-hydroxytryptamine receptor 2A (Homo sapiens) (UniProt P28223); test: Inhibition of human 5-HT2A at 10 uM relative to control
Chain of 5-hydroxytryptamine receptor 2A (Homo sapiens) (P28223 whole entry): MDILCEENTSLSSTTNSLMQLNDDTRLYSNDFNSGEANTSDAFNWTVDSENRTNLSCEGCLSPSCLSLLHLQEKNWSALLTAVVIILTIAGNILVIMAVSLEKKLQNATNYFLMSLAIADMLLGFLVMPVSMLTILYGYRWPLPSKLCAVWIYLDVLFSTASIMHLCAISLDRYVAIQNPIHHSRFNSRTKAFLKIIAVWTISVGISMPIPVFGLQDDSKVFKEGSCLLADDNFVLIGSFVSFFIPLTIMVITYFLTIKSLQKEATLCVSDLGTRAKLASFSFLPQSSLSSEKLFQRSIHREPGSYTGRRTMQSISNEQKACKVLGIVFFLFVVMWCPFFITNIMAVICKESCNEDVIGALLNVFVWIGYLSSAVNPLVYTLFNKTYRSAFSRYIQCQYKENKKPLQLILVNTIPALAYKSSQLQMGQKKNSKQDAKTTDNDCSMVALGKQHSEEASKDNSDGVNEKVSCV

[20] = biological target: 5-hydroxytryptamine receptor 2B (Homo sapiens) (UniProt P41595); test: Inhibition of human 5-hydroxytryptamine receptor 2B at 10 uM relative to control
Rattus norvegicus [21] = species: Rattus norvegicus; test: Inhibition of Rat alpha 1-Adrenoceptor at 10 uM relative to control
[22] = biological target: Muscarinic acetylcholine receptor M4 (Homo sapiens) (UniProt P08173); test: Inhibition of human Muscarinic acetylcholine receptor M4 expressed in stable Cricetulus griseus CHO cells at 10 uM relative to control; type: cell-based
Chain of Muscarinic acetylcholine receptor M4 (Homo sapiens) (P08173 whole entry): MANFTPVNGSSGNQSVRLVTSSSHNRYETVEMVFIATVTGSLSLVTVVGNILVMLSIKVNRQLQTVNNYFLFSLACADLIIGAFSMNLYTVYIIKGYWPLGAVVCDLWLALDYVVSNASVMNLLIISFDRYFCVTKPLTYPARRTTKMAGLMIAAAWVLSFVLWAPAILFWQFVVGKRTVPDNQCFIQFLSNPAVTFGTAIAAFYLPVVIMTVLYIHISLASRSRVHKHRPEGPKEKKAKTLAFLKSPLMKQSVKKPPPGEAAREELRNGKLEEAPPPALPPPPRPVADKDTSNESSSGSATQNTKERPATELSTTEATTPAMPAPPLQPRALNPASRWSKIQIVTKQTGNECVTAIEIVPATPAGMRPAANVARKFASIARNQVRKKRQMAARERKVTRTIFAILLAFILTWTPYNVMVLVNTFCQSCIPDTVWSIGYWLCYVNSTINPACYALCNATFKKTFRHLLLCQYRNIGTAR

[23] = biological target: Adenosine receptor A3 (Homo sapiens) (UniProt P0DMS8); test: Inhibition of human Adenosine receptor A3 at 10 uM relative to control
[24] = biological target: 5-hydroxytryptamine receptor 1B (Homo sapiens) (UniProt P28222); test: Inhibition of human 5-HT1B expressed in stable HEK cells at 10 uM relative to control; type: cell-based
[25] = biological target: D(2) dopamine receptor (Homo sapiens) (UniProt P14416); test: Inhibition of human D(2) dopamine receptor at 10 uM relative to control
[26] = biological target: T2, Muscarinic acetylcholine receptor M1 (Homo sapiens) (UniProt P11229); test: Inhibition of human Muscarinic acetylcholine receptor M1 at 10 uM relative to control
T2 sequence (whole entry): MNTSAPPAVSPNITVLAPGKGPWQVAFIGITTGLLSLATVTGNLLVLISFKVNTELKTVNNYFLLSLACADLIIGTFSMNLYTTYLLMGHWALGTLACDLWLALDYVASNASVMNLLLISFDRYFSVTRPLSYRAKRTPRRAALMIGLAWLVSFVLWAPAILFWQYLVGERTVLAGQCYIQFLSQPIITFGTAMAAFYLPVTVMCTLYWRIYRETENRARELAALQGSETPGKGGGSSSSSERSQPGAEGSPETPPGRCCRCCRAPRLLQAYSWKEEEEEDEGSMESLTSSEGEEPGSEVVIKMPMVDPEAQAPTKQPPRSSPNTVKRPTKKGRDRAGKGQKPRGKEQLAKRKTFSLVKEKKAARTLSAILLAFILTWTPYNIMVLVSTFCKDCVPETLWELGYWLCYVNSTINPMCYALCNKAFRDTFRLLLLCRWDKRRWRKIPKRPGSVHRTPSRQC

[27] = biological target: Delta-type opioid receptor (Homo sapiens) (UniProt P41143); test: Inhibition of human Delta-type opioid receptor expressed in stable HEK cells at 10 uM relative to control; type: cell-based
Chain of Delta-type opioid receptor (Homo sapiens) (P41143 whole entry): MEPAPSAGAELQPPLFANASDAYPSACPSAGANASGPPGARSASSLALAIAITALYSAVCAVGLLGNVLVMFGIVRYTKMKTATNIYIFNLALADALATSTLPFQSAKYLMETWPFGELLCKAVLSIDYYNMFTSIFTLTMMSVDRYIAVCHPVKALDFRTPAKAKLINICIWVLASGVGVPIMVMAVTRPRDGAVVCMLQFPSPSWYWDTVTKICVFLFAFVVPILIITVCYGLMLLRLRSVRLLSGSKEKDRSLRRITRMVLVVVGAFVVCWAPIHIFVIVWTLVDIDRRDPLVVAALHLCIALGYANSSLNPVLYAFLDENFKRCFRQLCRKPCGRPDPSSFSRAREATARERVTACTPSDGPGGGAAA

[28] = biological target: Vasoactive intestinal polypeptide receptor 1 (Homo sapiens) (UniProt P32241); test: Inhibition of human VPAC1 at 10 uM relative to control
[29] = biological target: Cholecystokinin receptor type A (Homo sapiens) (UniProt P32238); test: Inhibition of human CCK1 at 10 uM relative to control
Chain of Cholecystokinin receptor type A (Homo sapiens) (P32238 whole entry): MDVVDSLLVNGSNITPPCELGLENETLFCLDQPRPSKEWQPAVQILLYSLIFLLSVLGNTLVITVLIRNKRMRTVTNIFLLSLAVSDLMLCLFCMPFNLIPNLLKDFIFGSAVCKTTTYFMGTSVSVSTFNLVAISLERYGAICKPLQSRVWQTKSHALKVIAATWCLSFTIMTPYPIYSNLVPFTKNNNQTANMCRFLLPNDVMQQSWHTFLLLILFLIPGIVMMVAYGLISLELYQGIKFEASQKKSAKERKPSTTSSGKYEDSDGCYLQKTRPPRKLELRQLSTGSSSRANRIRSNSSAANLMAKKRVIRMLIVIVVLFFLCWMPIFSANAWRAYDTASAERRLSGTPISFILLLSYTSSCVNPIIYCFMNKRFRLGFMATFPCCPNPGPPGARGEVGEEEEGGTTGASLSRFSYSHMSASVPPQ

Embryonic stem cell = test: Antiproliferative activity against mouse Embryonic stem cell assessed as reduction in H4K20me3 at 10 uM incubated for 3 days by immunofluorescence analysis; type: functional, cell-based; conditions: time 3.0 day
[30] = biological target: Substance-K receptor (Homo sapiens) (UniProt P21452); test: Inhibition of human Substance-K receptor at 10 uM relative to control
Chain of Substance-K receptor (Homo sapiens) (P21452 whole entry): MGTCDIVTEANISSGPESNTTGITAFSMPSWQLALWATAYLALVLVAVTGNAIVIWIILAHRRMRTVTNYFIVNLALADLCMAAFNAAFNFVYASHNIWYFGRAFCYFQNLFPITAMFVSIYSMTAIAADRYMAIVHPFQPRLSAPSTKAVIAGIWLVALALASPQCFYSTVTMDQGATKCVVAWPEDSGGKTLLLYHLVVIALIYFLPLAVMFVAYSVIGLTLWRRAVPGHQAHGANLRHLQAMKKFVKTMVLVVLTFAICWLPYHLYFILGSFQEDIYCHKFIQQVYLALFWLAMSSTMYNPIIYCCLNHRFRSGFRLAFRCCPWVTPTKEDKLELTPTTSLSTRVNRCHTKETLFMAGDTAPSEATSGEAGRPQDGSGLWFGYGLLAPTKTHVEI

Chain of C-C chemokine receptor type 1 (Homo sapiens) (P32246 whole entry): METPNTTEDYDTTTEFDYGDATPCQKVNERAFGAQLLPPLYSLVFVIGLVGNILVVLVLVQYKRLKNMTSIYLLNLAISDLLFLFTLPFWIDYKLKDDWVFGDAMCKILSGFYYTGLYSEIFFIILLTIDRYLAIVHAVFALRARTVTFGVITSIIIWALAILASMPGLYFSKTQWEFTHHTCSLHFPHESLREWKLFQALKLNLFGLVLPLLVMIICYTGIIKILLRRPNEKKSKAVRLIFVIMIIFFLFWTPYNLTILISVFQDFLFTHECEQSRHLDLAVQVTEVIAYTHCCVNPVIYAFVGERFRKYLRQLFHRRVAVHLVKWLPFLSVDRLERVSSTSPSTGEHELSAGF

Clc1cc2c(NC3CCCC3)nnc(-c3ccncc3)c2cc1Cl
inhibition [1]: 16% | inhibition [2]: -6% | inhibition (Rattus norvegicus [3]): 1% | inhibition [4]: 5% | inhibition [5]: 23% | inhibition [6]: 14% | inhibition [7]: -8% | inhibition [8]: 62% | inhibition (Homo sapiens [9]): 4% | inhibition (Homo sapiens [10]): 3% | inhibition (Rattus norvegicus [11]): 5% | inhibition [12]: -8% | inhibition [13]: 32% | inhibition [14]: 1% | inhibition [15]: 98% | inhibition [16]: 13% | inhibition (Homo sapiens [17]): 90% | inhibition [18]: 1% | inhibition [19]: -1% | inhibition [20]: 27% | inhibition (Rattus norvegicus [21]): 5% | inhibition [22]: -3% | inhibition [23]: 74% | inhibition [24]: 4% | inhibition [25]: 3% | inhibition [26]: 21% | inhibition [27]: 11% | inhibition [28]: -5% | inhibition [29]: -2% | Activity (Embryonic stem cell): Active | inhibition [30]: 61%

O=C(c1nnc(NC2CCCC2)c2cc(Cl)c(Cl)cc12)N1CCC(O)CC1
inhibition [1]: -3% | inhibition [2]: -3% | inhibition (Rattus norvegicus [3]): 65% | inhibition [4]: -7% | inhibition [5]: -2% | inhibition [6]: -1% | inhibition [7]: -5% | inhibition [8]: 45% | inhibition (Homo sapiens [9]): 6% | inhibition (Homo sapiens [10]): -5% | inhibition (Rattus norvegicus [11]): 29% | inhibition [12]: -3% | inhibition [13]: -4% | inhibition [14]: -1% | inhibition [15]: 55% | inhibition [16]: 0% | inhibition (Homo sapiens [17]): 17% | inhibition [18]: -4% | inhibition [19]: -5% | inhibition [20]: 8% | inhibition (Rattus norvegicus [21]): 12% | inhibition [22]: -7% | inhibition [23]: 27% | inhibition [24]: 5% | inhibition [25]: 13% | inhibition [26]: 10% | inhibition [27]: 8% | inhibition [28]: -4% | inhibition [29]: 7% | Activity (Embryonic stem cell): inactive | inhibition [30]: 53%
